Experimental data published in patent US20150111896A1, “HEMATOPOIETIC PROTECTION AGAINST CHEMOTHERAPEUTIC COMPOUNDS USING SELECTIVE CYCLIN-DEPENDENT KINASE 4/6 INHIBITORS” (The University of North Carolina at Chapel Hill, priority 2008, published 2015).

Tests used:
[1] = system: human melanoma cells lacking INK4a/ARF (WM2664); test: Cell cycle analysis (BrdU and propidium iodide, flow cytometry); format: cell-based; conditions: WM2664 (CDK4/6-dependent), 24 hours treatment
Procedure: (§1) Cells were cultured in DMEM+10% FBS.
(§2) Cell cycle analysis: Cell cycle analysis was performed using BrdU and propidium iodide (both from BD Biosciences Pharmigen, San Jose, Calif., United States of America) following the manufacturer's protocol. Cells were treated for 24 hours with a test compound at a desired dose prior to 15 minutes BrdU pulse, cell harvesting, fixation, staining, and analysis by flow cytometry.
(§3) Histograms of dose-response curves of PD332991 and 2BrIC in HS68, WM2664 and A2058 cells were analyzed using Mod-Fit™ software from Verity Software House (Topsham, Me., United States of America).

[2] = system: telomerized human diploid fibroblast (tHDF) cells (HS68); test: as above; format: cell-based; conditions: HS68 (CDK4/6-dependent), 24 hours treatment
Procedure: as §1, §2, §3

[3] = system: human RB-null melanoma cells (A2058); test: γH2AX assay (DNA damage, flow cytometry); format: cell-based; conditions: 16 hours pretreatment, then 8 hours Carbo, Etop or Dox
Text: (§4) Reduction in DNA damage effected by the test compound or maintenance of cell viability effected by the test compound in cells treated with cytotoxic compounds can be assessed in any suitable manner. For example, DNA damage in cell populations can be assessed by performing a gamma-H2AX assay as described further herein below. Mammalian cells respond to agents that introduce DNA double-stranded breaks with the immediate and substantial phosphorylation of histone H2AX. Thus, detection of the phosphorylated H2AX, termed gamma-H2AX (γH2AX), using commercially available antibodies, can serve as a measure of DNA damage in cells.
as §1
(§5) γH2AX assay: For γH2AX assay, cells were treated with a dose response of PD332991 or 2BrIC for 24 hours. Cells were fixed, permeabilized, and stained with anti-γH2AX antibody as per γH2AX Flow Kit (Millipore, Billerica, Mass., United States of America). γH2AX levels were assessed by flow cytometry.

[4] = system: human melanoma cells lacking INK4a/ARF (WM2664); test: γH2AX assay (DNA damage, flow cytometry); format: cell-based; conditions: 16 hours pretreatment
Text: as §4, §1, §5

[5] = system: telomerized human diploid fibroblast (tHDF) cells (HS68); test: γH2AX assay (DNA damage, flow cytometry); format: cell-based; conditions: 16 hours pretreatment, then 8 hours Carbo, Etop or Dox
Text: as §4, §1, §5

[6] = system: hematopoietic stem and progenitor cells (HSPC); test: In vivo pharmacodynamic assay (BrdU incorporation, Ki67) in bone marrow; set-up: species or system mice
Procedure: PD0332991: For HSPC proliferation experiments, mice received daily oral gavage with PD0332991 150 mg/kg for 2 days with 1 mg BrdU intraperitoneal injection (i.p.) every 6 hours for 24 hours prior to sacrifice.
2BrIC: For HSPC proliferation experiments, mice were treated with two doses of 2-bromo-12,13-dihydro-5H-indolo[2,3-a]pyrrolo[3,4-c]carbazole-5,7(6H)-dione (2BrIC) 300 mg/kg oral gavage or vehicle control. 2BrIC was solubilized for oral gavage using formulation #6 from the Hot Rod formulation kit (Pharmatek, Inc., San Diego, Calif., United States of America). 2BrIC was administered 2 hours prior to BrdU administration and readministered at the time of the BrdU 1 mg i.p. injection. After BrdU+/−2BrIC treatment for the indicated times, the mice were sacrificed and bone marrow harvested for immunophenotyping, and BrdU analysis.
Bone marrow (BM) was harvested from femurs of mice, pooled, and centrifuged to purify bone marrow mononuclear cells (BM-MNCs). Cells were then incubated for 5 minutes in ACK buffer to lyse red blood cells. All antibodies were from BD Pharmingen (San Jose, Calif., United States of America) unless otherwise indicated. Purified BM-MNCs were incubated with mouse lineage mixture biotin conjugated antibody, followed by streptavidin-FITC. Cells were then stained with Sca-1-PE-Cy7 and c-kit-APC-alexa750 antibodies. Cell viability was assessed using LIVE/DEAD Aqua Dead Cell Stain Kit (Invitrogen Corporation, Carlsbad, Calif., United States of America). For BrdU incorporation assay, the cells were fixed, permeablized, and stained with an APC BrdU Flow Kit according to the manufacturer's instruction. In all experiments, PE-Cy7, FITC, APC-alexa750, and the Aqua Dead cell stain isotype controls were included as appropriate. Flow cytometric analysis was performed using a CyAn ADP (Dako, Glostrup, Denmark). For each sample, a minimum of 500,000 cells was analyzed and the data were analyzed using FlowJo software (Tree Star, Ashland, Oreg., United States of America).

[7] = system: mice exposed to chemotherapeutic agents; test: Myelosuppression assay: weekly complete blood counts; format: in vivo; conditions: for protection of blood cell counts (platelets, hemoglobin, lymphocytes, granulocytes) from doxorubicin: 150 mg/kg oral gavage 1 hour before DOX 10 mg/kg i.p., repeated after 7 days, blood at fourteen days; for protection of blood cell counts (platelets, hemoglobin, lymphocytes, granulocytes) from carboplatin: 150 mg/kg oral gavage one hour before Carbo 100 mg/kg i.p., blood at seven day intervals
Procedure: PD0332991: In the carboplatin experiments, mice were treated with a single dose of PD0332991 150 mg/kg oral gavage or vehicle control followed by carboplatin 100 mg/kg IP injection. In the doxorubicin experiments, mice were treated with a PD0332991 150 mg/kg by oral gavage or vehicle control one hour before doxorubicin 10 mg/kg by IP injection on day 0 and then repeated on day 7.
2BrIC: Mice were treated with a single dose of carboplatin 100 mg/kg by IP injection and two doses of 2BrIC 150mg/kg oral gavage or vehicle control. Mice were pretreated with 2BrIC two hours prior to carboplatin administration and then readministered a second dose of 2BrIC at the time of the carboplatin injection.
Baseline complete blood count (CBC) analysis were performed on a subset of mice prior to drug administration. Following drug administration (chemotherapy+/−indicated CDK4/6 inhibitor or control), mice were monitored weekly for the presence of myelosuppression by CBC analysis. CBC analysis was performed using BD Microtainer tubes with K2E (K2EDTA), 40 μL of blood was collected by tail vein nick. Blood was analyzed using a HESKA CBC-Diff Veterinary Hematology System. CBC analysis included measurement of white blood cells, lymphocytes, granulocytes, monocytes, hematocrit, red blood cells, hemoglobin, platelets, and other common hematological parameters.

tumor bearing mice = conditions: serially treated; cited from earlier work
[8] = system: human patients with malignancies; conditions: serially treated; cited from earlier work
[9] = system: human melanoma cells lacking INK4a/ARF (WM2664); test: Cell proliferation assay (WST-1 or CellTiter-Glo) after chemotherapeutic; conditions: WM2664 (CDK4/6-dependent); pretreatment prior to carboplatin, etoposide or doxorubicin
Procedure: (§6) In some embodiments, cell viability is assessed by performing a assay using 2-(4-iodophenyl)-3-(4-nitrophenyl)-5-(2,4-disulfophenyl)-2H-tetrazolium monosodium salt (WST-1), such as described further hereinbelow. In the WST-1 assay, WST-1 is cleaved by a mitochondrial reductase present in viable cells to form a colored product (i.e., formazan) that can be detected by measuring absorbance at a particular wavelength (e.g., 420-480 nm). […] The CellTiter-Glo® assay (CTG assay; Promega, Madison, Wis., United States of America) measures cell viability by measuring ATP concentration in cell lysate.
(§7) Cell lines: Telomerized human diploid fibroblast (tHDF) cells (HS68) were cultured in Dulbecco's Modified Eagle Medium (DMEM) +10% fetal bovine serum (FBS) with any additional compounds. The same conditions were used for A2058 and WM2664, human melanoma cell lines with known RB-pathway mutations: A2058 is RB-null, whereas WM2664 lacks INK4a/ARF. Thus, A2058 cells are CDK4/6-independent, while WM2664 cells are CDK4/6-dependent. Cells were cultured in DMEM+10% FBS.
(§8) Cell proliferation assays: Cell proliferation assays were performed by seeding 1×10^3 cells per well in a 96-well tissue culture plate in 100 μL of growth medium. Cells were treated as indicated with compound from Table 1 and doxorubicin, etoposide or carboplatin. Following treatment, cells were allowed to recover for 7 days in normal growth medium. At the end of the recovery period, cell number was quantified using the VVST-1 cell proliferation assay (TaKaRa Bio USA, Madison, Wis., United States of America) or the CellTiter-Glo® assay (CTG; Promega, Madison, Wis., United States of America). Data is presented as absorbance at 450 nm for the WST assays or Relative Light Units (RLU) for the CTG assays.

[10] = system: telomerized human diploid fibroblast (tHDF) cells (HS68); test: as above; conditions: HS68 (CDK4/6-dependent); pretreatment prior to carboplatin, etoposide or doxorubicin
Procedure: as §6, §7, §8

[11] = system: human RB-null melanoma cells (A2058); test: as above; conditions: A2058 (CDK4/6-independent); pretreatment prior to carboplatin, etoposide or doxorubicin
Procedure: as §6, §7, §8

CC(=O)c1c(C)c2cnc(Nc3ccc(N4CCNCC4)cn3)nc2n(C2CCCC2)c1=O [PD0332991, 6-acetyl-8-cyclopentyl-5-methyl-2-(5-piperazin-1-yl-pyridin-2-ylamino)-8H-pyrido-[2,3-d]-pyrimidin-7-one]
cell cycle effect [1]: strong, clean and reversible G1-arrest
cell cycle effect [2]: strong, clean and reversible G1-arrest
protection from doxorubicin-, carboplatin- or etoposide-induced DNA damage (gamma-H2AX) [3]: inability
protection from doxorubicin-, carboplatin- or etoposide-induced DNA damage (gamma-H2AX) ([4]; then 8 hours Carbo, Etop or Dox): attenuated γH2AX staining
protection from carboplatin-induced DNA damage (gamma-H2AX positive cells) ([4]; then 8 hours carboplatin): ability
protection from doxorubicin-induced DNA damage (gamma-H2AX positive cells) ([4]; then 8 hours doxorubicin): ability
protection from etoposide-induced DNA damage (gamma-H2AX positive cells) ([4]; then 8 hours etoposide): ability
protection from doxorubicin-, carboplatin- or etoposide-induced DNA damage (gamma-H2AX) [5]: attenuated γH2AX staining
protection from doxorubicin-, carboplatin- or etoposide-induced DNA damage (gamma-H2AX) ([5]; listed as PD 0332991): ability
proliferation of granulocyte-monocyte progenitors (GMP) and megakaryocyte-erythroid progenitors (MEP) ([6]; 150 mg/kg daily oral gavage, 48 hours): weaker effects
proliferation in early HSPC populations (BrdU incorporation and Ki67 expression) ([6]; 48 hours treatment, 24 hour exposure to BrdU): clearly reduces proliferation
frequency of HSC doubly positive for expression of Ki67 and BrdU ([6]; HSC (Lin−Kit+Sca1+CD48−CD150+), 150 mg/kg daily oral gavage, 48 hours, C57BII/6 mice): significantly decreased
proliferation of oligopotent progenitors (Ki67, BrdU) ([6]; Lin−Kit+Sca1−, 150 mg/kg daily oral gavage, 48 hours): modest inhibition of proliferation
proliferation of multipotent progenitor cell compartment (Ki67, BrdU) ([6]; MPP (Lin−Kit+Sca1+CD48−CD150−), 150 mg/kg daily oral gavage, 48 hours): more pronounced inhibition of proliferation
proliferation of Lin−Kit−Sca1− and Lin+ cells ([6]; more fully differentiated cells, 150 mg/kg daily oral gavage, 48 hours): no change in proliferation
protection of blood cell counts (platelets, hemoglobin, lymphocytes, granulocytes) from doxorubicin [7]: provides quadrilineage protection
protection of blood cell counts (platelets, hemoglobin, lymphocytes, granulocytes) from doxorubicin ([7]; listed as PD332991): protected
protection of blood cell counts (platelets, hemoglobin, lymphocytes, granulocytes) from carboplatin [7]: provides quadrilineage protection
protection of blood cell counts (platelets, hemoglobin, lymphocytes, granulocytes) from carboplatin ([7]; listed as PD332991): protected
erythroid, platelet and myeloid (monocyte+granulocyte) lineages upon administration (tumor bearing mice): decrease
erythroid, platelet and myeloid (monocyte+granulocyte) lineages upon administration [8]: decrease
protection from chemotherapy-induced cytotoxicity (cell proliferation assays) [9]: significant protection
protection from chemotherapy-induced cytotoxicity (cell proliferation assays) [10]: significant protection
protection from chemotherapy-induced cytotoxicity (cell proliferation assays) [11]: not
